Legend:
SARS-CoV-2 [1] = test: Antiviral activity against SARS-CoV-2 infected in human Caco-2 cells assessed as reduction in viral yield measured after 72 hrs by qRT-PCR analysis; format: functional, organism-based, Severe acute respiratory syndrome coronavirus 2; settings: for EC50: Severe acute respiratory syndrome coronavirus 2, Caco-2, 72 h; for EC90: Severe acute respiratory syndrome coronavirus 2, Caco-2, time 72 hrs
SARS-CoV-2 [2] = test: Antiviral activity against wild type SARS-CoV-2 WA1 infected in HEK293T cells measured after 48 hrs by Nano-Glo luciferase assay; format: functional, organism-based; settings: Severe acute respiratory syndrome coronavirus 2, WA1, HEK-293T
CCRF-CEM = test: (§1) Cytotoxicity against human CEM cells assessed as reduction in cell viability; format: toxicity, cell-based; settings: ccrf-cem
Huh-7 = test: (§2) Cytotoxicity against human Huh-7 cells assessed as reduction in cell viability; format: toxicity, cell-based; settings: huh-7
[3] = Cytotoxicity against human PBMC cells assessed as reduction in cell viability; format: toxicity, cell-based
[4] = Cytotoxicity against African green monkey Vero cells assessed as reduction in cell viability; format: toxicity, cell-based; settings: chlorocebus sabaeus
Human coronavirus OC43 = test: Antiviral activity against Human coronavirus OC43 infected in Vero cells assessed as reduction in viral yield preincubated with virus for 1 hr followed by washout and compound treatment and measured after 3 days by qRT-PCR analysis; format: functional, organism-based; settings: Betacoronavirus 1, Vero; for EC90: 72 h, time 3 day
[5] = (§3) Cytotoxicity against human Calu-3 cells assessed as reduction in cell viability; format: toxicity, cell-based; settings: Calu-3 cells
SARS-CoV-2 [6] = test: Antiviral activity against SARS-CoV-2 hCoV-19/USA-WA1/2020 Washington strain infected in Normal human bronchial/tracheal epithelial cells cultured in air-liquid interface media assessed as reduction in viral yield pretreated with compound followed by viral infection for 4 hrs post washout and measured 3 days after virus removal by qRT-PCR analysis; format: functional, organism-based; settings: Severe acute respiratory syndrome coronavirus 2, hCoV-19/USA-WA1/2020 Washington, Epithelial cell
SARS-CoV-2 [7] = test: Antiviral activity against SARS-CoV-2 infected in Vero cells assessed as reduction in viral yield measured after 48 hrs by qRT-PCR analysis; format: functional, organism-based; settings: Severe acute respiratory syndrome coronavirus 2, Vero; for EC50: 48 h; for EC90: time 48 hrs
SARS-CoV-2 [8] = test: Antiviral activity against SARS-CoV-2 hCoV-19/USA/GA-EHC-2811C/2021 (Omicron B.1.1.529) infected in human Calu-3 cells assessed as reduction in viral yield measured after 48 hrs by qRT-PCR analysis; format: functional, organism-based; settings: Severe acute respiratory syndrome coronavirus 2, hCoV-19/USA/GA-EHC-2811C/2021 (Omicron B.1.1.529); for EC50: Calu-3, 48 h; for EC90: Calu-3, time 48 hrs
SARS-CoV-2 [9] = test: Antiviral activity against SARS-CoV-2 infected in human Calu-3 cells assessed as reduction in viral yield measured after 72 hrs by qRT-PCR analysis; format: functional, organism-based, Severe acute respiratory syndrome coronavirus 2; settings: for EC90: Severe acute respiratory syndrome coronavirus 2, Calu-3, time 72 hrs; for EC50: Severe acute respiratory syndrome coronavirus 2, Calu-3, 72 h
[10] = (§4) Cytotoxicity against human Caco-2 cells assessed as reduction in cell viability; format: toxicity, cell-based; settings: Caco-2 cells
SARS-CoV-2 [11] = test: Antiviral activity against wild type SARS-CoV-2 Omicron BA.1 infected in HEK293T cells measured after 48 hrs by Nano-Glo luciferase assay; format: functional, organism-based; settings: Severe acute respiratory syndrome coronavirus 2, Omicron BA.1, HEK-293T
SARS-CoV-2 [12] = test: Selectivity ratio of EC50 for antiviral activity against SARS-CoV-2 infected in Vero cells to EC50 for antiviral activity against SARS-CoV-2 infected in human Caco-2 cells; format: functional, Severe acute respiratory syndrome coronavirus 2
[13] = Metabolic stability in human liver microsomes assessed as half life at 1 uM measured after 0 to 90 mins by LC-MS/MS analysis; format: ADME, Microsome; settings: time 0-90 min
[14] = molecular target: Replicase polyprotein 1ab (Severe acute respiratory syndrome coronavirus 2) (UniProt P0DTD1); test: Binding affinity to SARS-CoV-2 3CLpro assessed as thermal stabilization by measuring fold increase in melting temperature incubated for 60 mins by SYPRO orange dye based thermal shift assay relative to nirmatrelvir
[15] = molecular target: Replicase polyprotein 1ab (Severe acute respiratory syndrome coronavirus 2) (UniProt P0DTD1); settings: time 60.0 min
[16] = Metabolic stability in human liver microsomes assessed as reduction in decay rate at 1 uM incubated for 90 mins in presence of ritonavir by LC-MS/MS analysis; format: ADME, Microsome; settings: 1.5 h
[17] = Metabolic stability in human liver microsomes assessed as half life at 1 uM incubated for 90 mins in presence of ritonavir at 1:10 combination by LC-MS/MS analysis; format: ADME, Microsome; settings: 1.5 h
[18] = molecular target: Replicase polyprotein 1ab (Severe acute respiratory syndrome coronavirus 2) (UniProt P0DTD1); test: Potency index, ratio of nirmatrelvir IC50 to test compound IC50 for inhibition of amino-terminal His-SUMO tagged SARS-CoV-2 3CLpro using HilyteFluor 488-Glu-Ser-Ala-Thr-Leu-Gln-Ser-Gly-Leu-Arg-Lys-Ala-Lys-QXL 520 as FRET peptide substrate preincubated for 90 mins followed by substrate addition and measured over 30 mins by continuous FRET assay; settings: time > 120.0 min
[19] = molecular target: Replicase polyprotein 1ab (Severe acute respiratory syndrome coronavirus 2, UniProt P0DTD1); test: Inhibition of amino-terminal His-SUMO tagged SARS-CoV-2 3CLpro using HilyteFluor 488-Glu-Ser-Ala-Thr-Leu-Gln-Ser-Gly-Leu-Arg-Lys-Ala-Lys-QXL 520 as FRET peptide substrate preincubated for 90 mins followed by substrate addition and measured over 30 mins by continuous FRET assay
Calu-3 = test: as §3; format: toxicity, cell-based; settings: calu-3
[20] = molecular target: Replicase polyprotein 1ab (Severe acute respiratory syndrome coronavirus 2) (UniProt P0DTD1); settings: time 60.0 min; remark: listed apart in the source
[21] = Metabolic stability in human liver microsomes assessed as half life at 1 uM incubated for 90 mins in presence of ritonavir at 1:1 combination by LC-MS/MS analysis; format: ADME, Microsome; settings: 1.5 h
Caco-2 = test: as §4; format: toxicity, cell-based; settings: caco-2
[22] = Solubility of compound in PBS; format: physicochemical; settings: buffer
SARS-CoV-2 [23] = test: Selectivity ratio of EC50 for antiviral activity against SARS-CoV-2 infected in Vero cells to EC50 for antiviral activity against SARS-CoV-2 infected in human Calu-3 cells; format: functional, Severe acute respiratory syndrome coronavirus 2
[24] = as §1; format: toxicity, cell-based, CCRF-CEM; settings: CEM (CCRF-CEM) cells
[25] = as §2; format: toxicity, cell-based; settings: Huh-7 cells

Compound | EC90 (SARS-CoV-2 [1]) [µM] | EC50 (SARS-CoV-2 [2]) [µM] | CC50 (CCRF-CEM) [µM] | CC50 (Huh-7) [µM] | CC50 ([3]; pbmc) [µM] | EC50 (Human coronavirus OC43) [µM] | EC90 (Human coronavirus OC43) [µM] | EC50 (SARS-CoV-2 [6]) [µM] | EC90 (SARS-CoV-2 [6]) [µM] | EC50 (SARS-CoV-2 [7]) [µM] | EC90 (SARS-CoV-2 [7]) [µM] | EC50 (SARS-CoV-2 [8]) [µM] | EC90 (SARS-CoV-2 [8]) [µM] | EC90 (SARS-CoV-2 [9]) [µM] | EC50 (SARS-CoV-2 [11]) [µM] | CC50 ([4]; vero) [µM] | other results
CCC(CC)COC(=O)[C@H](C)N[P@](=O)(OC[C@H]1O[C@@](C#N)(c2ccc3c(N)ncnn23)[C@H](O)[C@@H]1O)Oc1ccccc1 | 0.2 | 0.01 | 11.2 | 1.4 | 4.9 | 0.01 | 0.03 | 0.5 | 0.9 | 3.2 | 4.7 | 0.2 | 0.6 | 0.7 | 0.014 |  | EC50 (SARS-CoV-2 [1]): 0.03 µM; CC50 ([4]; Vero cells): > 100 µM; CC50 [5]: > 100 µM; CC50 [10]: > 100 µM
Cc1cc(C(=O)N[C@@H](Cc2cccc3ccccc23)C(=O)N[C@@H](CC(C)C)C(=O)N[C@H](C=O)C[C@@H]2CCCNC2=O)no1 | 1.2 | 0.2 | 13.9 | 32.7 | 30.9 | 0.1 | 0.7 | 0.6 | 1.8 | 4.6 | 9 | 1.1 | 3.5 | 4.3 | 0.32 | 84.3 | EC50 (SARS-CoV-2 [1]): 0.1 µM; Ratio EC50 (SARS-CoV-2 [12]): 15; t1/2 [13]: < 5 min; fold change (FC) [14]: 2; Tm [15]: 69.9 °C; Stability [16]: Stable; t1/2 [17]: > 1.5 h; Ratio IC50 [18]: 2; IC50 [19]: 0.166 µM; CC50 (Calu-3): > 100 µM; ΔTm [20]: 13.9 °C; t1/2 [21]: > 1.5 h; CC50 (Caco-2): > 100 µM; solubility [22]: < 10 µg/mL; Ratio EC50 (SARS-CoV-2 [23]): 3
CC(C)(C)[C@H](NC(=O)C(F)(F)F)C(=O)N1C[C@H]2[C@@H]([C@H]1C(=O)N[C@H](C#N)C[C@@H]1CCNC1=O)C2(C)C | 0.3 | 0.034 |  |  |  | 0.2 | 0.3 | 0.03 | 0.2 | 3.7 | 5.6 | 0.7 | 5.3 | 7.6 | 0.11 |  | CC50 [24]: > 100 µM; CC50 [25]: > 100 µM; CC50 ([3]; PBMC cells): > 100 µM; CC50 ([4]; Vero cells): > 100 µM; CC50 [5]: > 100 µM; EC50 (SARS-CoV-2 [9]): 1.9 µM; CC50 [10]: > 100 µM
CC(C)C[C@H](NC(=O)[C@H](Cc1cccc2ccccc12)NC(=O)c1cc(C(F)(F)F)on1)C(=O)N[C@H](C=O)C[C@@H]1CCCNC1=O |  |  | 20.3 | 42.5 | 49.9 | 0.7 | 1 |  |  | 6.1 | 9.9 |  |  |  |  | 49.9 | 
CC(C)C[C@H](NC(=O)[C@H](Cc1ccc(F)cc1)NC(=O)OCc1ccccc1)C(=O)N[C@H](C=O)C[C@@H]1CCCNC1=O |  |  | > 100 | > 100 | > 100 | 0.8 | 2.6 |  |  | 6.7 | 7.4 |  |  |  |  | > 100 | 
CC(C)C[C@H](NC(=O)[C@H](Cc1cccc2ccccc12)NC(=O)OCc1ccccc1)C(=O)N[C@H](/C=C(\C#N)C(N)=O)C[C@@H]1CCCNC1=O |  |  | 29 | 29 | > 100 | 0.9 | 7 |  |  | > 10 | > 10 |  |  |  |  | > 100 | 
Cc1ccsc1C(=O)N[C@@H](Cc1cccc2ccccc12)C(=O)N[C@@H](CC(C)C)C(=O)N[C@H](C=O)C[C@@H]1CCCNC1=O |  |  | 16.3 | 35.1 | 51.5 | 0.3 | 0.8 |  |  | 2.2 | 4.8 |  |  |  |  | 53.1 | 
Cc1cc(C(=O)N[C@@H](Cc2cccc3ccccc23)C(=O)N[C@@H](CC(C)C)C(=O)N[C@@H](C[C@@H]2CCCNC2=O)C(O)S(=O)(=O)[O-])no1.[Na+] (stereo not given in full) | 1.7 |  | 24.3 | 51.1 | 58.6 | 0.3 |  | 0.4 | 0.7 | 4.5 | 9.3 | 0.8 | 2.7 | 5.3 |  | > 100 | Ratio EC50 (SARS-CoV-2 [12]): 15; CC50 (Calu-3): > 100 µM; EC50 (SARS-CoV-2 [9]): 1.2 µM; CC50 (Caco-2): > 100 µM; solubility [22]: 400 µg/mL; Ratio EC50 (SARS-CoV-2 [23]): 3

Source: ChEMBL document CHEMBL5505997, “Synthesis and biological evaluation of novel peptidomimetic inhibitors of the coronavirus 3C-like protease” (Eur J Med Chem, 2024)
